One compound from patent publication US11730717B1, “Melanin-inspired antimicrobial” (The Board of Regents for the Oklahoma Agricultural and …, priority 2020, dated 2023) can be followed below.

Data set [1] deals with HeLa cells. As to the kind of experiment: Cytotoxicity, LDH leakage assay. Type of data set: cell-based. The protocol: HeLa cells were cultured in 96-well plates at 37° C. and 5% CO2 in Roswell Park Memorial Institute (RMPI) 1640 medium with 5% Fetal Bovine Serum (FBS). Once HeLa cells reached 95% confluency, the media was replaced with media containing various concentrations of EIPE-1, DBI or DMSO for 24 hours. Cell cytotoxicity was measured using the lactate dehydrogenase (LDH) leakage assay. Results were compared to maximum values of lysed cells in control wells and were graphed as percent relative cytotoxicity using Prism 5.0.
Host cell cytotoxicity against HeLa cells was examined for both DBI and EIPE-1 (FIG. 2B). LDH release was examined after 24-hour exposure to varying concentrations of DBI, DMSO and EIPE-1. […] Thus, EIPE-1 is relatively safe to use with respect to eukaryotic cells.
Background: LDH in the medium is a marker of cell lysis.

In data set [2] the test system is Candida albicans strain SC5314. The experiment in a line: Antifungal MIC assay. The data set is classed as cell-based. The conditions noted are these: for MIC: Candida albicans. The protocol: Cryptococcus neoformans serotype A strain H99 as well as Candida ablicans strain SC5314, were readily available in the lab. The stock of cells is stored at −80° C. to preserve the fungi and prevent contamination. The cells were grown and maintained in yeast extract-peptone-dextrose (YPD) media (Difco). Cryptococcus or Candida cells were incubated in YPD broth for 18 hrs at 30° C., in a shaking incubator. After the incubation period, they were washed three times in sterile phosphate-buffered saline (PBS) to remove all remaining residue of YPD. The cells were then quantified by using trypan blue dye exclusion in a hemocytometer.
C. albicans were suspended in RPMI with MOPS, 0.165M, at a concentration of 0.5×10^3 cells/mL. RPMI Mops media was added to a 96-well plate in a volume of 100 μL to every well, with the exception of column 1. An additional 80 μL of RPMI MOPS was added to column 4 for a total of 180 μL/per well. EIPE-1 was added to columns 2 and 4 with a volume of 20 μL at a concentration of 1 mg/mL. Contents were mixed, then serially diluted 100 μL down the plate until column 11. The last 100 μL was discarded, leaving column 12 blank. C. albicans was added at a volume of 100 μL per well from column 4 to column 12, so the final volume of the wells was 200 μL. Plates were incubated at 35° C. in a humid incubator for 48 hrs.

The subject of data set [3] is S. aureus ATCC 25923. As to the kind of experiment: MIC and MBC values (Table 2). Type of data set: cell-based, Staphylococcus aureus.
The test system of data set [4] is B. subtilts ATCC 6633. The experiment in a line: MIC and MBC values (Table 2). Type of data set: cell-based. The conditions noted are these: Bacillus subtilis, ATCC6633.
Data set [5] relates to C. neoformans. The experiment in a line: Scanning electron microscopy of treated fungal cells. Type of data set: cell-based, Cryptococcus neoformans. As to conditions: exposed at the minimum inhibitory concentration 1.749 μg/mL for 4, 8, 12 or 24 hrs. The protocol:
C. neoformans were suspended in RPMI with MOPs, 0.165M, at a concentration of 2.0×10^6 cells/mL. RPMI Mops media was added to a 2 mL collection tube in a volume of 100 μL. […] The tubes were incubated at 35° C. in a humid incubator for set time points of 4 hrs, 8 hrs, 12 hrs, or 24 hrs. Once removed, the tubes were placed in a centrifuge for 1 min. at 5000 rpm. Media was removed. The pellet was resuspended in 2.0% glutaraldehyde in 0.1 M cacodylate buffer at a volume of 1 mL for a minimum of 2 hrs.
Fixed C. neoformans cells were placed in a centrifuge for 1 min at 5000 rpm. Media was removed and C. neoformans was rinsed 3 times in a buffered wash at fixed intervals of 15 mins. Rinsed cells were resuspended in 1% OsO4 at room temperature for 1 hr in a 36-well plate with a cover slip. 1% OsO4 was removed. C. neoformans was rinsed 3 times in a buffered wash at fixed intervals of 15 mins. C. neoformans were dehydrated in ethanol at 50%, 70%, 90%, 95%, and 100% three times at fixed intervals of 15 mins. C. neoformans were wash two times with […] at a time interval of 5 mins. Cover slips were placed on a clear sheet for 12 hrs to dry. Cover slips were mounted on stubs with silver paint. The cover slips were covered in an Au—Pd coat. […]

The test system of data set [6] is Gram-positive bacteria, including E. faecalis and clinical isolates MRSA. The experiment in a line: MIC summary for Gram-positive bacteria. The data set is classed as cell-based. The protocol: The minimum inhibitory concentrations (MICs) were determined by the broth microdilution method, following the guidelines of the Clinical and Laboratory Standards Institute (CLSI). Two-fold serial dilutions of EIPE-1, DBI, and Arm (starting with 1 mg/mL) were prepared in a 100 μL volume in 96-well microtiter plates. The dilution series included DMSO as a negative control. The bacterial culture […] was normalized to an OD600 of 0.2 and was then added to each well. Plates were incubated with shaking at 220 RPM at 37° C., and the MIC was determined based on the lowest concentration at which no visible growth of the bacterial isolate was observed.
In summary, a new antimicrobial, EIPE-1, was designed and synthesized, inspired by the black-brown pigment, Eumelanin. It was confirmed that the Eumelanin-inspired core DBI maintained its intrinsic antimicrobial activity, and that enhancement could be achieved with the incorporation of bactericidal moieties. […] Bactericidal effects of EIPE-1 against S. aureus were monitored and confirmed using the Live/Dead staining and fluorescent microscopy.

For data set [7], the system named is Pseudomonas aeruginosa (PA). As to the kind of experiment: Comparison with Methicillin and Gentamicin, recoverable CFU. As to conditions: compared with Methicillin and Gentamicin treatment. Type of data set: cell-based. The protocol:
To determine CFUs of PA and MRSA after exposure to DMSO, DBI, EIPE-1, Gentamicin or Methicillin, 10-fold serial dilutions were prepared in 96-well micro plates using multichannel pipettes. For each dilution, 25 ptL of each sample was pipetted onto a plate containing agar medium and incubated for 18 h at 37° C. The number of colonies for each dilution were counted and used to back calculate the number of bacteria per mL (CFU/mL) in each original bacterial culture.
EIPE-1 antimicrobial activity against MRSA and PA was compared to that of Methicillin and Gentamicin treatment. Bacterial cultures were grown, normalized and then exposed to either DBI, DMSO (solvent control), EIPE-1, Methicillin or Gentamicin (FIG. 3). […] This is highly significant and novel as methicillin resistance is a huge problem in hospitals and patient treatment worldwide. […] Gram-negative bacteria like PA have an outer membrane covered with lipopolysaccharides that protects the bacteria from antibiotics, dyes, and detergents from penetrating the bacterial cell.

Molecules are shown by their SMILES. “And” between values parts separate entries of the source, which are not always exact repeats. Equal values may be shown once. “Also recorded” adds a separate entry of the source. Read-outs that look alike come from different tables or passages of the source.

The MBC is the smallest concentration meeting the test's criterion for killing. Low values mean greater bactericidal potency, high ones weaker bactericidal potency. On to `COC(=O)c1cc2c(C#Cc3ccc(OCCC[N+](C)(C)C)cc3)c(OC)c(OC)c(C#Cc3ccc(OCCC[N+](C)(C)C)cc3)c2n1C` [EIPE-1, 3,3′-((((5,6-dimethoxy-2-(methoxycarbonyl)-1-methyl-1H-indole-4,7-diyl)bis(ethyne-2,1-diyl))bis(4,1-phenylene))bis(oxy))bis(N,N,N-trimethylpropan-1-aminium) iodide], for which the “concentration at which cell cytotoxicity was detected” value in data set [1] is 62.5 μg/mL and 66.8 μM. Besides, in data set [1] (24-hour exposure, concentrations above 62.5 μg/mL (66.8 μM)), the “maximal cytotoxicity (LDH release)” value is recorded as 50%. In data set [1] (prolonged exposure (24 h)), the “cytotoxic concentration relative to the MIC against S. aureus” value is listed as 4-5 fold. The “Minimum inhibitory concentration (MIC) for the isolate of C. albicans” value in data set [2] (35° C., 48 hrs, RPMI with MOPS) is 2.705 ± 0.3962 mg/L. The MIC in data set [2] (SC5314, 48 h, 35° C., 48 hrs, RPMI with MOPS, read-out: Minimum inhibitory concentration (MIC) for the isolate of C. albicans) is 2.71 mg/L; in data set [2] (SC5314, across seven experiments, read-out: Candida MIC) it was 2.46 mg/L; in data set [3] (Staphylococcus aureus, ATCC25923, repeated determinations, read-out: MIC) it was 2 mg/L; in data set [3] (repeated determinations), 1.000 mg/L; in data set [4], 1 mg/L; in data set [6], 8 µg/mL to 16 µg/mL and 8.5 µM to 17 µM. Moreover, the MBC was 2 mg/L in data set [3] (Staphylococcus aureus, ATCC25923, repeated determinations) and 1 mg/L in data set [4]. The “cell wall changes by SEM” value in data set [5] was “structural changes to their cell wall; also recorded: changes to the cell wall shown at 4 hours”. Also, the “activity against PA” value in data set [7] is listed as “does not appear to have activity; also recorded: did not display any activity”.
